Assay results taken from patent publication US20240165196A1, “Beta-Lactamase Inhibitors” (VIB VZW, priority 2021, published 2024).
Ends that are not written are not given here.

Key:
[1] = tested on: strain containing NDM5a; test: checkerboard assay (FICI), peptide and penicillin; assay type: cell-based, E. coli
Description: (§1) FIGS. 4A-4K. […] IV—Intravenous, IP—Intraperitoneal, SC—Subcutaneously. The data shown is from a single experiment with 4 animals per group. […] (ns—non significant, #—P>0.05, *—P≤0.05, ***—P≤0.01, ****—P≤0.001). (FIG. 4G) FICI plot as in FIG. 2, for the E. coli strains indicated and the combination of penicillin and the TEM3.2 peptide. […] (FIG. 4J) Same as FIG. 4H for peptide BGAL. (FIG. 4K) Same as FIG. 4H for peptide P33.
(§2) As we wondered about the generality of our peptide design approach, we set out to design a peptide to inactivate a structurally unrelated beta-lactamase. To this end we turned to the Ambler class B beta-lactamase NDM-1 that confers resistance to many beta-lactam antibiotics, including carbapenems, and strains carrying this enzyme was soon dubbed ‘superbugs’ that are only partially sensitive to colistin and tigecycline^49. This enzyme was first isolated from a patient in 200850, by 2010 could be detected in clinical isolates throughout the UK and India^51 and by 2015 was detected in over 70 countries worldwide^52.
(§3) For the analysis of the synergy between the peptides with other antibiotics, a checkerboard assay was performed. Referring to the MICs of the selected peptides, checkerboard assay was designed to define their FICIs (Fractional Inhibitory Concentration Index) in combinations against different clinical isolates^62,63. Briefly, a total volume of 100 μL of Mueller-Hinton broth was distributed into each well of the 96-well plates. The first compound (peptide) of the combination was serially diluted vertically (128, 64, 32, 16, 8, 4, 2, 0 μg/mL) while the other drug (Beta-lactam or Kanamycin) was diluted horizontally in 96 well plate (from 3200 to 3 μg/mL). The total volume of each microtiter well was inoculated with 100 μL of MHB containing 1×10^6 CFU/mL bacteria. The plates were incubated at 37° C. for 24 h under aerobic conditions without shaking. Calculation of the FICI is used to analyze the results of the checkerboard assay by estimating the degree of synergistic effect. FICI is calculated as the sum of the individual fractional inhibitory concentrations (FICs) for each drug (where MIC A and MIC B denote the MIC of each drug alone, and MIC AA+B and MIC BA+B denote the concentrations of A and B in the drug combination). FICI=(MIC AA+B/MIC A)+(MIC BA+B/MIC B). With FICI≤0.5, the combination of antibiotics considered as a synergistic effect, 0.5<FICI≤1 indicates additivity, FICI>1 indicates indifference.

[2] = tested on: strain containing NDM5b; test: checkerboard assay (FICI), peptide and penicillin; assay type: cell-based, E. coli
Description: as §1, §2, §3

[3] = tested on: strain containing TEM-1; test: checkerboard assay (FICI), peptide and penicillin; assay type: cell-based, E. coli; conditions: strain TEM-1
Description: as §1, §2, §3

[4] = tested on: E. coli SHV-11; test: checkerboard assay (FICI), peptide versus penicillin G; assay type: cell-based; conditions: strain with SHV-11; FICI below 0.5 = synergy
Description: (§4) FIGS. 2A-2M. (FIG. 2A) TEM mutations and their effects on stability (total energy) as predicted by FoldX. […] Dashed line indicates a total energy difference of 0.5 kcal/mol, the FoldX cut-off above which mutations are considered to be destabilizing. (FIG. 2B) Barplot mapping mutations in (FIG. 2A) to the TEM sequence and indicating occurrence. […] The bar heights correspond to the number of times a mutation occurs across different TEM variants (right-hand y-axis). The color coding is identical to that in (FIG. 2A). Red line indicates the TANGO scores (indicated on the left-hand y-axis), with peaks corresponding to APRs. (FIG. 2C) Mapping of mutations in (FIG. 2A) and (FIG. 2B) to the TEM structure (pdb 1xpb). Protein surface is shown in gray, color coding of mutations is identical to (FIG. 2A) and (FIG. 2B). (FIGS. 2D, 2E, and 2F) Temperature-dependent evolution of the Right-Angle Light Scattering (RALS) intensity during a temperature ramp, similar as in FIG. 1F for key mutants of TEM1, namely TEM-10 (FIG. 2D), TEM-30 (FIG. 2E) and TEM-155 (FIG. 2F). Experiments were shown in triplicate, single repeat is shown. (FIG. 2G) Schematic representation of the structure of the peptides. APR—Aggregation Prone Region, R—Arginine. (FIG. 2H) Ribbon representation of the superposition of the crystal structures of TEM (green, pdb id 1bt5) and SHV (blue, pdb id 1shv). The catalytic site of the beta-lactamase activity is indicated and location of APR3 is shown in red. (FIG. 2I) TANGO aggregation score and alignment of APR3 in TEM and SHV. (FIG. 2J) Fractional Inhibitory Concentration Index determination of 5 peptides versus penicillin on E. coli TEM-104. […] FICI values below 0.5 indicate synergy. Values between 0.5 and 1.0 indicate additivity and values greater than 1 indicate indifference between the combined substances. (FIG. 2K) Same as J for E. coli SHV-11. (FIG. 2L) Same as J for a kanamycin resistant E. coli strain. (FIG. 2M) FICI values for the TEM3.2 peptide on a range of E. coli strains.
(§5) Moreover, the core sequence of peptide TEM3.0 also occurs in the structurally related SHV β-lactamase ([…]). Although the C-terminal extension residues H and N have been replaced with physicochemically similar R and Q, respectively (FIG. 2H). […] To quantify the synergy between these four peptides and penicillin G, we performed a so-called checkerboard assay, which allows to compare the activity of two test compounds co-incubated (here peptide and a beta-lactam antibiotic), to their individual activities in isolation. The result from the assay is quantified as the Fractional Inhibitory Concentration Index (FICI), and it is generally accepted that values below 0.5 indicate synergistic effects between the compounds. As a control, we generated a peptide using the same design, but based on a previously identified APR from the β-galactosidase enzyme (BGAL)^16 from E. coli (APR=SVIIWSL, peptide sequence=[…]) that has a MIC value>100 μg/mL on E. coli strain UZ_TEM104. We evaluated the synergy of the peptides with penicillin G in clinical E. coli isolates carrying the TEM ([…]) or SHV enzymes ([…]). […] As a further control, we also performed a checkerboard assay with an E. coli strain that was resistant to the aminoglycoside kanamycin and observed no synergy between this unrelated antibiotic and our peptides (FIG. 2L), in line with the notion that we are inhibiting a beta-lactamase but not the aminoglycoside degrading enzyme. […] The list of strains included some that harbored only TEM or SHV, but others contained additional Ambler Class A (CTX-M or […]) or Class B (VIM and NDM) beta-lactamases. […] In contrast, the presence of the NDM-type […], that does have a high affinity for Ampicillin and that is completely distinct in sequence and structure from TEM and SHV, seemed to completely prevent the effect of the peptide on the beta-lactam sensitivity of the strains in which it occurred (see also further). […]

[5] = tested on: E. coli TEM-104; test: as above; assay type: cell-based; conditions: strain with TEM; FICI below 0.5 = synergy
Description: as §4, §5

Sequence | synergy with penicillin (FICI) [1] | synergy with penicillin (FICI) [2] | synergy with penicillin (FICI) [3] | synergy with penicillin G (FICI) [4] | synergy with penicillin G (FICI) [5]
RLAAALMLRRPRAQILNWIRR (NDM1-2) | synergy | synergy | not in a strain containing TEM-1 | – | –
RSVIIWSLGRRPRSVIIWSLGRR [BGAL] | neither showed synergy | neither showed synergy | neither showed synergy | no synergy | no synergy
RTAQILNWRRPRTAQILNWRR (NDM1-1) | synergy | synergy | not in a strain containing TEM-1 | – | –
